Data from US8242152B2, “Use of 4-[(4-thiazolyl)phenoxy]alkoxy-benzamidine derivatives for the prophylaxis and treatment of osteoporosis” (Dong Wha Pharmaceutical Co., Ltd., priority 2001, dated 2012).
“And” between values parts separate entries of the source, which are not always exact repeats. Identical values can stand only once. Like-named read-outs stand apart in the source and are kept apart here.

Tests used:
[1] = tested on: bone resorption of osteoclast; assay: Measurement of bone resorption, pit formation assay on ivory fragment (Example 3); format: cell-based, mice; settings: 24 hrs; for inhibition at 0.016 µM / inhibition at 0.08 µM / inhibition at 0.4 µM / inhibition at 2 µM / inhibition at 10 µM / IC50: Mus musculus, Osteoclast; for inhibition at 0.016 µM / inhibition at 0.08 µM / inhibition at 0.4 µM / inhibition at 2 µM / inhibition at 10 µM: read-out: Inhibitory action (%)
Procedure: The mature osteoclast (OCL) is mainly involved in removing mineral by bone resorption. This experiment is designed to measure the inhibitory effects of each test substance on the bone resorption of osteoclast using ivory fragment (Eijiro Jimi et al. Endocrinology 137, p 2187-2190, 1996).
The co-culture system for both bone marrow cells and osteoblast was performed using a cultivation dish containing collagen gel (cell matrix Type I-A). Collagen, 5-fold concentrated α-MEM medium and 0.05M NaOH buffer solution (2.2% NaHCO3, pH7.4) were mixed at the ratio of 7:2:1 at a low temperature, and then storage at a low temperature. Then, 4 mL of the mixed solution was added to a 100 mm culture dish, applied evenly and left at 37° C. for 5 minutes.
Using α-MEM medium, the mixture of both bone marrow cells (about 1×10^7 cells/plate) and osteoblast (about 5×10^5 cells/plate), so separated from Example 1, were plated on a 100 mm dish containing collagen gel. The co-culture was performed in the presence of differentiation factors such as vitamin D (10^−9M) and dexamethasone (10^−6M). As described above, a great number of mature multinucleated osteoclasts with the ability of bone resorption were obtained via a 7-day co-culture. The medium was removed from the cells and with the addition of 0.2% collagenase solution, the attachment cells were separated by incubation for 20 minutes. The cells were collected via centrifuge. The harvested crude osteoclasts were again diluted in α-MEM medium to make the cells of 5,000 cells/100 ul.
Hematoxylin staining solution was prepared in a manner such that hematoxylin (1 g) was dissolved in 500 ml of distilled water and was added to 500 ml of distilled water and […] (0.2 g). The reaction mixture was stirred for 15 mins. Ammonium alum (50 g) and 7.5 ml of acetic acid were further added to the reaction mixture and filtered off.
After the ivory fragments, cut to a thickness of 1 mm, were sterilized, each fragment was placed into a 96 well plate, and 100 ul α-MEM medium (10% FBS) was added. To measure its inhibitory effect against the pit formation of osteoclast, each test substance was added in a maximum amount of 3 ul per concentration.
With the addition of test substances, 100 ul of osteoclast solution was further added, mixed vigorously and cultured using a 5% CO2 incubator at 37° C. for 24 hrs. To observe the pits formed on the ivory fragments, the portion of grown osteoclast was directed upward and placed on a paper towel after removing from the 96 well plate. With the removal of cells on the ivory, 10 ul of hematoxylin solution was dropped on the ivory to perform the staining for about 5 minutes. The surface of the ivory fragments was rubbed with a soft cotton pole to completely remove the staining solution.

[2] = tested on: MC3T3-E1 cells; assay: Alkaline phosphatase (ALP) activity to measure osteoblast activity (Example 4); format: cell-based; settings: 10^−8M; two weeks culture
Procedure: This experiment is designed to evaluate the differentiation and activity of osteoblast via ALP activity having a close relationship with osteoblastic bone formation (Y. Wada et al., Bone, 22,479-485, 1998).
MC3T3-E1 cells (3,000 cells/well) derived from osteoblast were placed on a 96 well plate and after 24-hour culture the media were changed with fresh medium containing various differentiation factors such as ascorbic acid (100 ug/ml) and β-glycerophosphatic acid (5 mM). The medium was also treated with test substances and the medium, containing differentiation factors and the specimen, was changed with a fresh medium every 3 days.
The culture was terminated after two weeks to measure ALP activity. With the removal of the supernatant, 0.5% Triton X-100 were added for the lysis of cells. 100 ul of p-nitrophenylphosphate (1.21 mM) was added to 50 ul of above mixture. The mixture was incubated at 37° C. for 30 mins and with the addition of 0.2N sodium hydroxide (50 ul), the reaction was terminated. The standard curve was indicated at the absorbance of 405 nm using p-nitrophenol as a standard material and then the absorbance of test substances, so reacted, was measured to observe the production amount of p-nitrophenol.
As shown in the following table 4, the units of ALP activity were determined as the amount of p-nitrophenol (nM) produced per time (per min or hour)/1 ug protein after measuring the amounts of protein contained in the reaction mixture of each test substance.

[3] = target: LTB4 receptor (Homo sapiens, UniProt Q15722); design: endogenous in cells; host or cells: human neutrophils (PMN) purified from fresh blood; settings: cited from earlier work
LTB4 receptor, sequence (Q15722 whole entry): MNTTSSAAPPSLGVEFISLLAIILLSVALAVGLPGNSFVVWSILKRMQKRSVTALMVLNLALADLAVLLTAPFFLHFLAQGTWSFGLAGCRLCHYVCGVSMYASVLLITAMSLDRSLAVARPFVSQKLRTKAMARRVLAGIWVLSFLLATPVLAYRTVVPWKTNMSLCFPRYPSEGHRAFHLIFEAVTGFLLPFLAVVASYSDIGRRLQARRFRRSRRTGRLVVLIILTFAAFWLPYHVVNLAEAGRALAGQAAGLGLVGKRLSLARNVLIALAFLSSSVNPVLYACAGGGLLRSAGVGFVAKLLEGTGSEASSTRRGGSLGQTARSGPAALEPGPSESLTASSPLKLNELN

Compound | Inhibitory action (%) ([1]; 0.016 μM) | Inhibitory action (%) ([1]; 0.08 μM) | Inhibitory action (%) ([1]; 0.4 μM) | Inhibitory action (%) ([1]; 2 μM) | Inhibitory action (%) ([1]; 10 μM) | ALP activity (units) [2] [units] | Inhibition (%) of LTB4 receptor binding ([3]; 100 nM) [%] | Inhibition (%) of LTB4 receptor binding ([3]; 1 uM) [%] | inhibition at 0.016 µM ([1]; 0.016 μM) [%] | inhibition at 0.08 µM ([1]; 0.08 μM) [%] | inhibition at 0.4 µM ([1]; 0.4 μM) [%] | inhibition at 2 µM ([1]; 2 μM) [%] | inhibition at 10 µM ([1]; 10 μM) [%] | IC50 [1] [µM] | Inhibition (%) of LTB4 receptor binding ([3]; 100 nM, 0.1 µM) | Inhibition (%) of LTB4 receptor binding ([3]; 100 nM, listed as 1350, 0.1 µM) [%]
4-[5-[4-(aminoiminomethyl)phenoxy]pentoxy]-3-methoxy-N,N-bis(1-methylethyl)benzamide maleic acid [CGS-25019C] | 0 | 0 | 2 | 9.2 | 17.3 | 15.0 | – | – | – | – | – | – | – | – | – | –
Cc1nc(-c2ccc(OCCCCOc3ccc(C(=N)NO)cc3)cc2)c(C(C)C)s1 [DW1349, N— hydroxy-4-{4-[4-(5-isopropyl-2-methyl-1,3-thiazol-4-yl)phenoxy]butoxy}-benzamidine] | – | – | – | – | – | – | 32.7 | 87.2 | – | – | – | – | – | – | – | –
Cc1nc(-c2ccc(OCCCCCOc3ccc(C(=N)NO)cc3)cc2)c(C(C)C)s1 [DW1350, N-hydroxy-4-{5-[4-(5-isopropyl-2-methyl-1,3-thiazol-4-yl)phenoxy]pentoxy}-benzamidine] | – | – | – | – | – | 19.8 | – | 92.3 | 32.2 | 53.9 | 65.2 | 84.3 | 91.3 | 0.075 | 10% and < 10% | <10
Cc1nc(-c2ccc(OCCCCOc3ccc(C(=N)N)cc3)cc2)c(C(C)C)s1 [DW1351, 4-{4-[4-(5-isopropyl-2-methyl-1,3-thiazol-4-yl)phenoxy]butoxy}-benzamidine] | – | – | – | – | – | – | 89 | 100 | – | – | – | – | – | – | – | –
Cc1nc(-c2ccc(OCCCCCOc3ccc(C(=N)N)cc3)cc2)c(C(C)C)s1 [DW1352, 4-{5-[4-(5-isopropyl-2-methyl-1,3-thiazol-4-yl)phenoxy]pentoxy}-benzamidine] | – | – | – | – | – | 17.1 | 88 | 100 | 25 | 48.7 | 61.3 | 81.7 | 90 | 0.131 | – | –
COc1cc(C(=O)N(C(C)C)C(C)C)ccc1OCCCCOc1ccc2c(N)noc2c1 [HS1141, N,N-diisopropyl-4-[4-(3-aminobenzo[d]isooxazole-6-yloxy)butoxy]-3-methoxybenzamide] | – | – | – | – | – | 15.2 | – | 100 | 9 | 33 | 50.4 | 75.3 | 88.7 | 0.421 | – | –
